Test results reported in ChEMBL document CHEMBL1150889, “Thiomycalolides: new cytotoxic trisoxazole-containing macrolides isolated from a marine sponge Mycale sp” (J Nat Prod, 1998).
Converted amounts (≈) assume the structure as drawn.

System: P388
Assay: Cytotoxicity against mouse P388 cells
Format: functional, cell-based

Row | SMILES | IC50
1 | COC(CC1OC(=O)CC(O)CC(SC[C@H](NC(=O)CC[C@H](N)C(=O)O)C(=O)NCC(=O)O)CC(=O)C(C)C(OC)c2coc(n2)-c2coc(n2)-c2coc(n2)/C=C/CC(OC)C1C)C(C)CCC(=O)C(C)C(OC(C)=O)C(C)/C=C/N(C)C=O (some centres not stated) [THIOMYCALOLIDE A] | 0.018 µg/mL (≈ 0.0148 µM)
2 | COCC(OC)C(=O)OC(CCC(C)C(CC1OC(=O)CC(O)CC(SC[C@H](NC(=O)CC[C@H](N)C(=O)O)C(=O)NCC(=O)O)CC(=O)C(C)C(OC)c2coc(n2)-c2coc(n2)-c2coc(n2)/C=C/CC(OC)C1C)OC)C(C)C(OC(C)=O)C(C)/C=C/N(C)C=O (some centres not stated) [THIOMYCALOLIDE B] | 0.018 µg/mL (≈ 0.0135 µM)
